# Data from patent US11739098B2 (BRISTOL-MYERS SQUIBB COMPANY, priority 2017, dated 2023).
# Assays:
# Type in all cases: cell-based
# human TLR7 = target: T1, human TLR7 (Homo sapiens, UniProt Q9NYK1); test: TLR7 inhibition reporter assay (HEK-Blue cells, SEAP reporter, gardiquimod stimulation); details: HEK-Blue cells overexpressing human TLR7, SEAP reporter, gardiquimod 7.5 μM
# T1 construct: host or cells: HEK-Blue cells (HEK293-derived reporter line)
# T1 sequence (Q9NYK1 27-1049): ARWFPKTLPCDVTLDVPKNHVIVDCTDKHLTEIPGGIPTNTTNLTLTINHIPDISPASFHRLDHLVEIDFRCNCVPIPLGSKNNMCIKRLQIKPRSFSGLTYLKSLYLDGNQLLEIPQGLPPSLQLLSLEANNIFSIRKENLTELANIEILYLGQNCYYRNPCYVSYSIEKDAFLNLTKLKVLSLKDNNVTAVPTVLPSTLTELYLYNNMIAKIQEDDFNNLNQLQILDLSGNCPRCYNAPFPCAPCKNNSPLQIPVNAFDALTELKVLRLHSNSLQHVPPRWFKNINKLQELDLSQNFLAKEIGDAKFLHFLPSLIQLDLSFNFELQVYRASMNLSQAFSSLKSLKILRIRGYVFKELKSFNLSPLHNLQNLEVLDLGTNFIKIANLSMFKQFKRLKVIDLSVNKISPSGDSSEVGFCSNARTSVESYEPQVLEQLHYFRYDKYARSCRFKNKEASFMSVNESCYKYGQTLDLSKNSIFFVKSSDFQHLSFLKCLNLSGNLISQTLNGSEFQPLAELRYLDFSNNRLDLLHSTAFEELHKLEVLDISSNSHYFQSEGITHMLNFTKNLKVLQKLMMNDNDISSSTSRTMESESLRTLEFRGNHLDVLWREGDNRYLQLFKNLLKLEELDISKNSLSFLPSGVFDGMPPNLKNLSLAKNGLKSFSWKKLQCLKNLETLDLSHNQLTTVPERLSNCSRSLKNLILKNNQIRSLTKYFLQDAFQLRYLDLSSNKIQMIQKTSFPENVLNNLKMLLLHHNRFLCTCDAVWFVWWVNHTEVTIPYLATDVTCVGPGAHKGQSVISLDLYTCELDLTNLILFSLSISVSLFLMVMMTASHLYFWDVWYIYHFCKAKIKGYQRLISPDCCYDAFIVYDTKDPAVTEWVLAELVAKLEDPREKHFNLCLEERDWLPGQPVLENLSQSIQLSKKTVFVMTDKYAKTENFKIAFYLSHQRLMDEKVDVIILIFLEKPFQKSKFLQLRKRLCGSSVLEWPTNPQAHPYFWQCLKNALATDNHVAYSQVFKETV
# How it was run: (§1)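 HEK-Blue cells overexpressing human TLR7, TLR8 or TLR9 (NF-κB/AP-1-driven SEAP) pre-treated 30 min at room temperature with compound (0.05 nM–50 μM), then stimulated with gardiquimod 7.5 μM (TLR7), R848 15.9 μM (TLR8) or ODN2006 5 nM (TLR9). SEAP read colorimetrically after 22 h at 37 °C; % inhibition calculated.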
# human TLR8 = target: T2, human TLR8 (Homo sapiens, UniProt Q9NR97); test: TLR8 inhibition reporter assay (HEK-Blue cells, SEAP reporter, R848 stimulation); details: HEK-Blue cells overexpressing human TLR8, SEAP reporter, R848 15.9 μM
# T2 construct: host or cells: HEK-Blue cells (HEK293-derived reporter line)
# T2 sequence (Q9NR97 27-1041): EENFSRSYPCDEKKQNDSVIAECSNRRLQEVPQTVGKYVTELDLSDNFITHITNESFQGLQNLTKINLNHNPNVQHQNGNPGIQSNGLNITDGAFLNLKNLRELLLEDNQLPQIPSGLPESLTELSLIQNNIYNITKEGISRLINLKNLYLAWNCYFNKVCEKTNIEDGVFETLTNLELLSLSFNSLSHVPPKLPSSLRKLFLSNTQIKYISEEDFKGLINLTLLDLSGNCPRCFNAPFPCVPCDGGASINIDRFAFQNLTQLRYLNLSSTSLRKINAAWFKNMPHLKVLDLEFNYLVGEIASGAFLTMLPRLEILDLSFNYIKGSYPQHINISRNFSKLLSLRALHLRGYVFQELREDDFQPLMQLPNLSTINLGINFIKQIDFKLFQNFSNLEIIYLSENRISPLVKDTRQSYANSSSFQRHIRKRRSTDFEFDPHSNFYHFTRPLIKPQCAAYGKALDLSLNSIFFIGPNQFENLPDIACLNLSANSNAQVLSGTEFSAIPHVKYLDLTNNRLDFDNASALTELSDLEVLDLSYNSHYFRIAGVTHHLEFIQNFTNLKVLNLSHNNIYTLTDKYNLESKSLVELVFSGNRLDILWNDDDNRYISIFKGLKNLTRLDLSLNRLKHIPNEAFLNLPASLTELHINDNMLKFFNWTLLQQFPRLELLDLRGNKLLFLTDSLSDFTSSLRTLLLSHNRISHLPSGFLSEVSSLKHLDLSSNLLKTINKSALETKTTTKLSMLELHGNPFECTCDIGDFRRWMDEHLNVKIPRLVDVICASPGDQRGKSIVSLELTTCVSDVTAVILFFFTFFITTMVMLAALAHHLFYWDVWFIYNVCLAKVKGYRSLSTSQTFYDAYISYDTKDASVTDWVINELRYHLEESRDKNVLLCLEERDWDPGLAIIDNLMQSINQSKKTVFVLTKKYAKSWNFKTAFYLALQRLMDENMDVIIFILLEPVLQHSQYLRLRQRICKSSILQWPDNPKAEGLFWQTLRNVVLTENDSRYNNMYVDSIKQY
# How it was run: as §1
# human TLR9 = target: T3, human TLR9 (Homo sapiens, UniProt Q9NR96); test: TLR9 inhibition reporter assay (HEK-Blue cells, SEAP reporter, ODN2006 stimulation); details: HEK-Blue cells overexpressing human TLR9, SEAP reporter, ODN2006 5 nM
# T3 construct: host or cells: HEK-Blue cells (HEK293-derived reporter line)
# T3 sequence (Q9NR96 26-1032): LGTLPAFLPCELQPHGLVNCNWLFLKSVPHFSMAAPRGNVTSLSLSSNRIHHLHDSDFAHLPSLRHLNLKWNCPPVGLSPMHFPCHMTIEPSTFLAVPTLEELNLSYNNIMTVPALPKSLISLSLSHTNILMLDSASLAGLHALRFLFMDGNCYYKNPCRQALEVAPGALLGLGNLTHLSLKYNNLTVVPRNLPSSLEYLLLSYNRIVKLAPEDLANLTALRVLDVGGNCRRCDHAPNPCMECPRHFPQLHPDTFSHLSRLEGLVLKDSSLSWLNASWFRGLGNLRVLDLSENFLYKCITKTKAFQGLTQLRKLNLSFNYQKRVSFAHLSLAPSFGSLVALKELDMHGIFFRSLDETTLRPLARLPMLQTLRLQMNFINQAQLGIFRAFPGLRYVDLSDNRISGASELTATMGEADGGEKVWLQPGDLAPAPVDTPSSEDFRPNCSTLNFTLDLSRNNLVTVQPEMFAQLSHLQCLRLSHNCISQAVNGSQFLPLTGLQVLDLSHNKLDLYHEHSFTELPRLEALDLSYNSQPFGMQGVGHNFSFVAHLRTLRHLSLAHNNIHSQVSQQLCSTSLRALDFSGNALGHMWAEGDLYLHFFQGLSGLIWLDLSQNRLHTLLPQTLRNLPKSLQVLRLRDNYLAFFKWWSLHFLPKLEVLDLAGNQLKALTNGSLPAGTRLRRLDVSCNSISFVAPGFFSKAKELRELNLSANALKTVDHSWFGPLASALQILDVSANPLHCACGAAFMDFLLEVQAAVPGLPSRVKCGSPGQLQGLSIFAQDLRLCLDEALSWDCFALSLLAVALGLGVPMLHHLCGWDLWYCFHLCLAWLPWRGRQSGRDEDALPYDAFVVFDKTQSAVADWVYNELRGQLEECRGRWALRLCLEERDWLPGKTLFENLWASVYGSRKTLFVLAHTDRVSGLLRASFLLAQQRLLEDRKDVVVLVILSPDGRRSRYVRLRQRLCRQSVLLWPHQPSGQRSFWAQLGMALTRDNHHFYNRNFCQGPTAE
# How it was run: as §1
Structure (SMILES),IC50 (human TLR7),IC50 (human TLR8),IC50 (human TLR9)
"CC(C)c1c(-c2ccnc3[nH]c(=O)oc23)[nH]c2ccc(C3CCNCC3)cc12 [Example 58, 7-(3-isopropyl-5-(piperidin-4-yl)-1H-indol-2-yl)oxazolo[4,5-b]pyridin-2(3H)-one]",1000 to 50000 nM,1000 to 50000 nM,1000 to 50000 nM
"Cc1cc(-c2[nH]c3ccc(C4CCN(C(=O)CCN5CCC(F)CC5)CC4)cc3c2C(C)C)cn2nnnc12 [Example 633, 3-(4-fluoropiperidin-1-yl)-1-(4-(3-isopropyl-2-(8-methyltetrazolo[1,5-a]pyridin-6-yl)-1H-ndol-5-yl)piperidin-1-yl)propan-1-one]",< 100 nM,< 100 nM,1000 to 50000 nM
"COc1cc(-c2[nH]c3ccc(C4CCN(CCS(C)(=O)=O)CC4)cc3c2C(C)C)nn2ncnc12 [Example 782, 6-(3-isopropyl-5-(1-(2-(methylsulfonyl)ethyl)piperidin-4-yl)-1H-indol-2-yl)-8-methoxy-[1,2,4]triazolo[1,5-b]pyridazine]",< 100 nM,< 100 nM,1000 to 50000 nM
"Cc1c(-c2[nH]c3ccc(C4CCNCC4)cc3c2C(C)C)cn2ccnc2c1C(C)C [Example 273, 8-isopropyl-6-(3-isopropyl-5-(piperidin-4-yl)-1H-indol-2-yl)-7-methylimidazo[1,2-a]pyridine]",< 100 nM,100 to 1000 nM,100 to 1000 nM
"CC(C)c1c(-c2cnc3cnccn23)[nH]c2ccc(C3CCN(CC(=O)N(C)C)CC3)cc12 [Example 426, 2-(4-(2-(imidazo[1,2-a]pyrazin-3-yl)-3-isopropyl-1H-indol-5-yl)piperidin-1-yl)-N,N-dimethylacetamide]",> 3130 nM,1000 to 50000 nM,1000 to 50000 nM
"Cc1cc(-c2[nH]c3ccc(C4CCN(CC(C)C)CC4)cc3c2C(C)C)cc2[nH]cnc12 [Example 955, 6-(5-(1-isobutylpiperidin-4-yl)-3-isopropyl-1H-indol-2-yl)-4-methyl-1H-benzo[d]imidazole]",< 100 nM,< 100 nM,100 to 1000 nM
"CC(C)c1c(-c2cnc3cn[nH]c3c2)[nH]c2ccc(C3CCN(C(=O)CN(C)C)CC3)cc12 [Example 526, 2-(dimethylamino)-1-(4-(3-isopropyl-2-(1H-pyrazolo[4,3-b]pyridin-6-yl)-1H-indol-5-yl)piperidin-1-yl)ethan-1-one]",< 100 nM,< 100 nM,1000 to 50000 nM
"Cc1c(-c2[nH]c3ccc(C4CCN(C5COC5)CC4)cc3c2C(C)C)nn2ncnc2c1C [Example 730, 6-(3-isopropyl-5-(1-(oxetan-3-yl)piperidin-4-yl)-1H-indol-2-yl)-7,8-dimethyl-[1,2,4]triazolo[1,5-b]pyridazine]",< 100 nM,< 100 nM,1000 to 50000 nM
"CNC(=O)CN1CCC(c2ccc3[nH]c(-c4ccc5ncnn5n4)c(C(C)C)c3c2)CC1 [Example 277, 2-(4-(2-([1,2,4]triazolo[1,5-b]pyridazin-6-yl)-3-isopropyl-1H-indol-5-yl)piperidin-1-yl)-N-methylacetamide]",< 100 nM,< 100 nM,1000 to 50000 nM
"Cc1cc2cc(-c3[nH]c4ccc(C5CCN(C6COC6)CC5)cc4c3C(C)C)ccn2n1 [Example 726, 5-(3-isopropyl-5-(1-(oxetan-3-yl)piperidin-4-yl)-1H-indol-2-yl)-2-methylpyrazolo[1,5-a]pyridine]",100 to 1000 nM,> 3130 nM,> 50000 nM
"Cc1cc(-c2[nH]c3ccc(C4CCN(C5CCOCC5)CC4)cc3c2C(C)C)cc2cncn12 [Example 707, 7-(3-isopropyl-5-(1-(tetrahydro-2H-pyran-4-yl)piperidin-4-yl)-1H-indol-2-yl)-5-methylimidazo[1,5-a]pyridine]",< 100 nM,< 100 nM,100 to 1000 nM
"CNCCN1CCC(c2ccc3[nH]c(-c4cccc5cccnc45)c(C)c3c2)CC1 [Example 662, N-methyl-2-(4-(3-methyl-2-(quinolin-8-yl)-1H-indol-5-yl)piperidin-1-yl)ethan-1-amine]",1000 to 50000 nM,> 3130 nM,1000 to 50000 nM
"COc1cc(-c2[nH]c3ccc(C4CCN(CCS(C)(=O)=O)CC4)cc3c2C(C)C)cc2ncnn12 [Example 797, 7-(3-isopropyl-5-(1-(2-(methylsulfonyl)ethyl)piperidin-4-yl)-1H-indol-2-yl)-5-methoxy-[1,2,4]triazolo[1,5-a]pyridine]",< 100 nM,< 100 nM,1000 to 50000 nM
"CCc1c(-c2cnc3cccnn23)[nH]c2ccc(C3CCNCC3)cc12 [Example 187, 3-(3-ethyl-5-(piperidin-4-yl)-1H-indol-2-yl)imidazo[1,2-b]pyridazine]",1000 to 50000 nM,1000 to 50000 nM,1000 to 50000 nM
"CC(C)c1c(-c2ccc3ncc(C#N)n3c2)[nH]c2ccc(C3CCNCC3)cc12 [Example 119, 6-(3-isopropyl-5-(piperidin-4-yl)-1H-indol-2-yl)imidazo[1,2-a]pyridine-3-carbonitrile]",100 to 1000 nM,100 to 1000 nM,1000 to 50000 nM
